{
  "source": "patent US20220225639A1",
  "about": "“IMMUNE-STIMULATING COMPOSITIONS FOR AQUACULTURE SPECIES” (MIREXUS BIOTECHNOLOGIES INC., priority 2019, published 2022)",
  "tested_on": "rainbow trout gut cells (RT-gut)",
  "assay": "Uptake and intracellular stability of fluorescently labelled poly IC (fluorescent microscopy)",
  "type": "cell-based",
  "details": "1 ug/ml, 20 degree treatment, 4 hours",
  "description": "Per Example 7, low molecular weight poly:IC was labelled with a fluorescent dye, then left as “free” poly:IC or coupled with Cat-PhG (0.38) at a 1:1 (w/w) ratio. Free poly:IC or PhG coupled poly:IC was added to RT-gut cells at a concentration of 1 ug/ml and incubated at 4° C. or 20° C. for 4 hours. Cells were imaged via fluorescent microscopy, and average intracellular fluorescence intensity was measured from 5 randomly selected cells.\nLow molecular weight poly IC was labelled with the Ulysis AlexaFluor 546 labelling kit (Invitrogen), then left as “free” poly IC or couple with cationic PhG (0.38) at a 1:1 (w/w) ratio. Free poly IC or PhG coupled poly IC was added to RT-gut cells at a concentration of 1 ug/ml and incubated at 4° C. or 20° C. for 4 hours. Cells were imaged via fluorescent microscopy, and average intracellular fluorescence intensity was measured from 5 randomly selected cells.",
  "data": [
    {"substance": "polyinosinic:polycytidylic acid [free poly IC]", "values": [
      {"measurement": "intracellular fluorescence", "value": "no fluorescence was detected"}
    ]}
  ]
}
